Measurements taken from US7446125B2, “Derivatives of nitroproline compounds, processes of manufacture and uses in the treatment of integrin mediated disorders” (Universidad del Pais Vasco, priority 2005, dated 2008).
Each block holds one molecule with its values, some of them ahead of it.

Columns and labels:
[1] = target: T1, VLA-4 (Mus musculus, UniProt P09055+Q00651); assay: B16M (MB16) melanoma cell adhesion to primary cultured hepatic sinusoidal endothelial (HSE) cells; format: cell-based, murine; details: B16M cells preincubated with compound, 50 μg/1×10^6 MB16 cells; TNF-alpha-treated HSE or H2O2-treated B16M cells; FIG. 6
T1 construct: The tumor used is the B16F10 subline of MB16, the VLA-4 expression of which is constitutive; endogenous in cells; host or cells: B16F10 (MB16/B16M) murine melanoma cells; VCAM-1 on primary mouse HSE cells
Description: The tumor used is the B16F10 subline of MB16, the VLA-4 expression of which is constitutive.
The MB16 tumor cells (subline B16F10) are cultured in incubator at 37° C., with 5% CO2 atmosphere, in DMEM medium (Dulbecco's modified Eagle's medium), adjusted to pH 7.4 and supplemented with penicillin (100 U/ml), streptomycin (100 μg/ml) and 5% fetal bovine serum. The cells are maintained and subcultured according to a previously-described method (Vidal-Vanaclocha et al. Cancer Research, 1994, 54, 2667).
The hepatic sinusoidal cells are isolated from C57BU6J mice (males, age 6-8 weeks) supplied by IFFA Credo (L'Arbreole, France). For their purification and identification, the previously-described protocol is employed (Vidal-Vanaclocha et al. Hepatology, 1993, 18, 328-339). The primary HSE cell cultures are obtained by seeding the cells on a Type I collagen substrate (Sigma Chemicals Co, St Louis, Mo.) in the presence of DMEM, supplementing with penicillin (100 U/ml), streptomycin (100 μg/ml) and 10% fetal bovine serum, at 37° C. in 5% CO2 atmosphere.
The endothelial cells are isolated 24 hours prior to the adhesion test and are seeded on 24-well plate, maintaining them a minimum of 4 hours in free serum medium before incubating them with DMEM in the presence or not of 10 ng/ml TNF-α for 6 hours. The B16 cells are marked with 40 μg/ml of the BCECF-AM fluorescent probe (carboxyfluorescein, 2′,7′-bis-(2-carboxy-etyl)-5-(6)carboxyfluorescein aminoxymethyl ester), supplied by Molecular Probes Inc. (Oregon, USA). Afterward, a washing with DMEM medium without serum is performed to remove the excess flurorchromium, and the compounds of general formula I are incubated at 37° C. for 15 minutes at the concentration of 50 μg/1×10^6 MB16 cells. This is followed by two washings, the number of visible cells being calculated by means of the trypan blue dye exclusion test, and they are resuspended to a concentration of 2×10^5 cells/ml. One (1) ml of the MB16 cell suspension is added to each well on the primary HSE cell culture plate, and the co-cultures are incubated at 37° C. for 8 minutes. The percentage of cellular adhesion is calculated by means of a previously-described fluorescence measurement system (Vidal-Vanaclocha et al. Cancer Research, 1994, 54, 2667).
Next, the potential VLA-4 antagonism of compounds 11 was tested through a previously established model on VLA-4NCAM-1-interaction-dependent B16M cell adhesion to primary cultured hepatic sinusoidal endothelial (HSE) cells in vitro.

[2] = tested on: B16M cells; assay: Cell viability, cytotoxicity, intracellular oxidative metabolism and proliferation rate of treated melanoma cells; format: cell-based, murine
Description: (§1) B16M cells were cultured for 24 hours in the presence 50 μg/ml of compound 11d, or […] anti-murine VLA-4 antibody. Cultured cells were fixed and processed for the immunohistochemical detection of Ki-67 antigen expression. Next, a computed-aid microscopic image analysis system was used to discriminate stained cells (brown nuclei) and calculate the average number of Ki-67 antigen-expressing cells per 1×10^4 cells. The results are the mean±SD of 6 independent fields, from 3 different experiments (n=18).

[3] = tested on: B16M cells; assay: Hepatic metastasis of intrasplenically injected, compound-pretreated B16M cells; format: in vivo, C57BU6J mice; details: mice intrasplenically injected with pretreated B16M cells relative to untreated cells; P<0.01; FIG. 7
Description: A description is provided in following of the effect of the le compound on the metastatic capacity of MB16 in in-vivo tests. For this purpose, the MB16 cells treated with le are inoculated intrasplenically in C57BU6J mice (3×10^5 viable cells per animal, resuspended in endotoxin-free sterile saline solution), and the microvascular retention within the first 18 hours and their ability to develop metastasis on day 12 following the tumor injection is determined.
as §1

[4] = target: T1, VLA-4; assay: B16M (MB16) cell adhesion to immobilized recombinant human VCAM-1; format: cell-based, murine; details: IL-1b (interleukin-1b)-treated melanoma cells; FIG. 3
[5] = Solubility in water; format: physicochemical; details: compared with 11f
[6] = tested on: VEGF production by soluble VCAM-1-stimulated B16M cells; assay: VEGF production by soluble VCAM-1-treated B16M cells in vitro; format: cell-based, murine; details: soluble VCAM-1-stimulated cells; FIG. 4

T1 sequence (Q00651 41-1039): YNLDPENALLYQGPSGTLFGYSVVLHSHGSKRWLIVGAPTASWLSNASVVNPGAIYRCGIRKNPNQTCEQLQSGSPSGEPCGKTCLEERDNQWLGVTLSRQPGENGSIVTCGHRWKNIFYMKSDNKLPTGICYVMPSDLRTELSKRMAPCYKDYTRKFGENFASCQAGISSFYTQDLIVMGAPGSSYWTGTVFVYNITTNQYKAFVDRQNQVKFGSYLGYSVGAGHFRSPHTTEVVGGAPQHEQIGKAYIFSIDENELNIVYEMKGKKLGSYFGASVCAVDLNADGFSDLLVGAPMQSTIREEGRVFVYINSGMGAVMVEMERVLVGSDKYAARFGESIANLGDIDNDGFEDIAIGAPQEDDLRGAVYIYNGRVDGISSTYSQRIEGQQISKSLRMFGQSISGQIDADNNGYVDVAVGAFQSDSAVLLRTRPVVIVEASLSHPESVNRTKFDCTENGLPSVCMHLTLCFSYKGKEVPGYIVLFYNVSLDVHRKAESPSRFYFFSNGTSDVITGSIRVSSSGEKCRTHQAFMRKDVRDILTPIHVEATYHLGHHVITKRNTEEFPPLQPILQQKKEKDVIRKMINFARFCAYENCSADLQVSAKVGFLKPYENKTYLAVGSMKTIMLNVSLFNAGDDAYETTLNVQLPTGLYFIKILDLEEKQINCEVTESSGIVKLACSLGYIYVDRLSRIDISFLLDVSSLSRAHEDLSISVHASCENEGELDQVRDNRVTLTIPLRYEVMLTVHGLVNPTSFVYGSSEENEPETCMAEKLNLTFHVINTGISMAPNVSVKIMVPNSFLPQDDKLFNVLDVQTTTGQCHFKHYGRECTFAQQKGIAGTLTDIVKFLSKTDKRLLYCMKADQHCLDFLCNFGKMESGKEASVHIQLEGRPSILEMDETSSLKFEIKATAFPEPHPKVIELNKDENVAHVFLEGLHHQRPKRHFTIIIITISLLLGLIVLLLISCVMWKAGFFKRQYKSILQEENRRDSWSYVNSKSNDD
T1 sequence (P09055 21-798): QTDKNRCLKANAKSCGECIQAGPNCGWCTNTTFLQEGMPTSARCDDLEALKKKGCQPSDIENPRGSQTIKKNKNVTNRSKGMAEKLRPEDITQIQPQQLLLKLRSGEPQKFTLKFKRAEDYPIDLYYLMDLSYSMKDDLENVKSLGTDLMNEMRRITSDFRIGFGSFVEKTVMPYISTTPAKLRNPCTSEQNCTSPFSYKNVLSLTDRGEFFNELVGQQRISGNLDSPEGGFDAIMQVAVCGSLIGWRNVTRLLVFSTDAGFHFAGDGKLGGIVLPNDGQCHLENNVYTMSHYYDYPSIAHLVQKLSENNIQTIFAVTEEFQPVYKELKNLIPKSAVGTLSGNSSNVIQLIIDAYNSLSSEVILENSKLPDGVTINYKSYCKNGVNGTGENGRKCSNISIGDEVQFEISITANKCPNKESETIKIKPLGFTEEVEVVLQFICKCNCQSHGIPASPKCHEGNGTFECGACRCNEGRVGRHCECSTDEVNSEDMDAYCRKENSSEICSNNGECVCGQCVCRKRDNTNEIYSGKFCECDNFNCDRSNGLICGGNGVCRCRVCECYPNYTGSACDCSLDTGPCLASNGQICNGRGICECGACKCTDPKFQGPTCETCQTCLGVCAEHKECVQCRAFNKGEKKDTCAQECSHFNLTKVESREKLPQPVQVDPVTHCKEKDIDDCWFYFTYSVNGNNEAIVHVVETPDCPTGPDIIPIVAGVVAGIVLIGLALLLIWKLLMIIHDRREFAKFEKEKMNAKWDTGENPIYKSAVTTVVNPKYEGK

- adhesion of melanoma cells to immobilized VCAM-1 [4]: completely abrogated
- solubility in water [5]: higher solubility in water
Compound: CC[C@H](C)[C@H](OCc1ccccc1)[C@H]1[C@H]([N+](=O)[O-])[C@H](c2ccccc2)N[C@@H]1C(=O)NCC(=O)O [Compound 11d, 2-[(2S,3R,4S,5S)-3-[(1S,2S)-1-(Benzyloxy)-2-methylbutyl]-4-nitro-5-phenyl-pyrrolidine-2-carboxamido]acetic acid]
- cell viability and cytotoxicity, intracellular oxidative metabolism, cell-proliferation rates [2]: excluded that antimetastatic effects of 11d compound may have been caused by indirect effects on cell functions
- decrease of metastasis density [3]: 60%
- decrease of metastasis volume [3]: 95%
- antiadhesive activity (B16M cell adhesion to HSE cells) [1]: comparable antiadhesive activity to monoclonal antibodies against murine VLA-4
- VEGF production induced by soluble VCAM-1 [6]: prevented

- melting point: 119 to 120 °C
Compound: CC(C)[C@H](OCc1ccccc1)[C@H]1[C@H]([N+](=O)[O-])[C@H](C(C)(C)C)N[C@@H]1C(=O)NCC(=O)O [Compound 11b, 2-[(2S,3R,4S,5S)-5-tert-Butyl-3-[(S)-1-(benzyloxy)-2-methylpropyl]-4-nitropyrrolidine-2-carboxamido]acetic acid]
- antiadhesive activity (B16M cell adhesion to HSE cells) [1]: did not show any significant antiadhesive activity

More lines, now with the values behind:

Compound: CC[C@H](C)[C@H](OCc1ccccc1)[C@@H]1[C@H]([N+](=O)[O-])[C@H](c2ccccc2)N[C@]1(C)C(=O)NCC(=O)O [Compound 11j, 2-[(2S,3R,4S,5S)-3-[(1S,2S)-1-(Benzyloxy)-2-methylbutyl]-2-methyl-4-nitro-5-phenyl-pyrrolidine-2-carboxamido]acetic acid]
- antiadhesive activity (B16M cell adhesion to HSE cells) [1]: did not result in a significant loss of activity

Compound: CC[C@H](C)[C@H](OCc1ccccc1)[C@H]1[C@H]([N+](=O)[O-])[C@H](C2CCCCC2)N[C@@H]1C(=O)NCC(=O)O [Compound 11f, 2-[(2S,3R,4S,5S)-3-[(1S,2S)-1-(benzyloxy)-2-methylbutyl]-5-cyclohexyl-4-nitropyrrol-idine-2-carboxamido]acetic acid]
- antiadhesive activity (B16M cell adhesion to HSE cells) [1]: best activity in vitro

Compound: CC[C@H](C)[C@H](OCc1ccccc1)[C@H]1[C@H]([N+](=O)[O-])[C@H](C2CC2)N[C@@H]1C(=O)NCC(=O)O [Compound 11h, 2-[(2S,3R,4S,5S)-3-[(1S,2S)-1-(benzyloxy)-2-methylbutyl]-5-cyclopropyl-4-nitropyrrol-idine-2-carboxamido]acetic acid]
- antiadhesive activity (B16M cell adhesion to HSE cells) [1]: did not show any significant antiadhesive activity

Compound: CC(C)[C@H](OCc1c(F)cccc1F)[C@H]1[C@H]([N+](=O)[O-])[C@H](c2ccccc2)N[C@@H]1C(=O)NCC(=O)O [Compound 11e, 2-[(2S,3R,4S,5S)-3-[(S)-1-(2,6-Difluorobenzyloxy)-2-methylpropyl]-4-nitro-5-phenyl-pyrrolidine-2-carboxamido]acetic acid]
- antiadhesive activity (B16M cell adhesion to HSE cells) [1]: almost inactive
